Experimental findings from US20240277663A1, “PHARMACEUTICAL KITS AND USES THEREOF FOR TREATING COLORECTAL CANCER” (priority 2023, published 2024) are described below.

Marks after values point to notes of the source that are not given here. Bounds are passed on as bounds.

The subject of experiment [1] is CT26 allograft tumor (MSS subtype colorectal carcinoma). Kind of experiment: CT26 subcutaneous tumor model, multiple doses of ABT-301 with or without RMP1-14. The format is in vivo, mouse. The note with it: for Tumor size: Day 27 after treatments, alone or + RMP1-14 200 μg, means ± SEM. As to the method:
Treatments were administered for indicated period (27 days) or until humane endpoints. Ten mice were used in each group. […] RMP1-14 was prepared with PBS.

For the next experiment, the target named is HDAC1 (Homo sapiens, UniProt Q13547). The experiment can be described thus: HDAC enzymatic activity assay (fluorogenic, Reaction Biology).
HDAC1, sequence (Q13547 whole entry): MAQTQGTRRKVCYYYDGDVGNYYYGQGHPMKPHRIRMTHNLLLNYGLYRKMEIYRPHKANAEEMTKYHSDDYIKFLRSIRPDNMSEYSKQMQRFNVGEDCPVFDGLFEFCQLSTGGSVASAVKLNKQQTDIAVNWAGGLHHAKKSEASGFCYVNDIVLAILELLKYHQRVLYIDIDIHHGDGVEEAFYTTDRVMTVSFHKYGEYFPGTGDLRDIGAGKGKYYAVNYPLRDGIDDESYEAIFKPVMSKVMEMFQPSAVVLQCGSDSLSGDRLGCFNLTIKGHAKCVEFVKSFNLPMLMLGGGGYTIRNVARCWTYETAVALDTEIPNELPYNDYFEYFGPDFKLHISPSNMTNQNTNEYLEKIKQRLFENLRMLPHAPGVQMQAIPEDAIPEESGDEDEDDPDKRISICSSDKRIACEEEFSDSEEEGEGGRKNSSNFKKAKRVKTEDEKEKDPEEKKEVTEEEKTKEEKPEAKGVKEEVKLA
The target of a further experiment is HDAC3 (Homo sapiens, UniProt O15379). Described as above.
HDAC3, sequence (O15379 whole entry): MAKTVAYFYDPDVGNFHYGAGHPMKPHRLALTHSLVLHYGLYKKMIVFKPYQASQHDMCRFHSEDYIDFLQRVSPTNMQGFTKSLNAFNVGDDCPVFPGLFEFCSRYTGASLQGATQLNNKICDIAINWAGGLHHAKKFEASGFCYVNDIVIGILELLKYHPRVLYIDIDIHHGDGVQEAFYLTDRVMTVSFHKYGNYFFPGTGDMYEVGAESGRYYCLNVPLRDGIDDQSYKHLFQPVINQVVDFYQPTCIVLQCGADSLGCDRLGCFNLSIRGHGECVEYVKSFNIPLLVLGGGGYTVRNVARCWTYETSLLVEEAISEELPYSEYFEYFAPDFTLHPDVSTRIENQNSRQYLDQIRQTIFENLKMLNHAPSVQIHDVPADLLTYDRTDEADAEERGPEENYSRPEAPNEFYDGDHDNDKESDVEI
HDAC3, sequence (Q9Y618 395-489 partner limits assumed): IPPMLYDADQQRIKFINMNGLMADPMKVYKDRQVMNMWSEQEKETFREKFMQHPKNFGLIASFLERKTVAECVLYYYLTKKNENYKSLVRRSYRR
The next experiment concerns the target T1, HDAC8 (Homo sapiens, UniProt Q9BY41).
T1 sequence (Q9BY41 1-377): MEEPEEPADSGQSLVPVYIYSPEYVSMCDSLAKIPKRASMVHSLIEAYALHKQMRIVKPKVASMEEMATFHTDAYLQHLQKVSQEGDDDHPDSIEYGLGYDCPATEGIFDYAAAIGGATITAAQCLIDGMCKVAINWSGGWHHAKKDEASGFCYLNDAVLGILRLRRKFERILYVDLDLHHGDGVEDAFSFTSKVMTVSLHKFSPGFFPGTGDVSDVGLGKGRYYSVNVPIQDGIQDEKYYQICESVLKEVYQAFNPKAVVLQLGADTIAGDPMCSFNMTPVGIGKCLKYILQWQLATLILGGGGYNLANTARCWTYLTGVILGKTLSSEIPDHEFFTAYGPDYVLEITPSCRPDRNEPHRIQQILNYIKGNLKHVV
The description is as above.

Another experiment concerns the target HDAC4 (Homo sapiens, UniProt P56524). The experiment is described as above.
Another experiment concerns the target HDAC5 (Homo sapiens, UniProt Q9UQL6). The description is as above.
The target of a further experiment is T2, HDAC6 (Homo sapiens, UniProt Q9UBN7).
T2 sequence (Q9UBN7 1-1215): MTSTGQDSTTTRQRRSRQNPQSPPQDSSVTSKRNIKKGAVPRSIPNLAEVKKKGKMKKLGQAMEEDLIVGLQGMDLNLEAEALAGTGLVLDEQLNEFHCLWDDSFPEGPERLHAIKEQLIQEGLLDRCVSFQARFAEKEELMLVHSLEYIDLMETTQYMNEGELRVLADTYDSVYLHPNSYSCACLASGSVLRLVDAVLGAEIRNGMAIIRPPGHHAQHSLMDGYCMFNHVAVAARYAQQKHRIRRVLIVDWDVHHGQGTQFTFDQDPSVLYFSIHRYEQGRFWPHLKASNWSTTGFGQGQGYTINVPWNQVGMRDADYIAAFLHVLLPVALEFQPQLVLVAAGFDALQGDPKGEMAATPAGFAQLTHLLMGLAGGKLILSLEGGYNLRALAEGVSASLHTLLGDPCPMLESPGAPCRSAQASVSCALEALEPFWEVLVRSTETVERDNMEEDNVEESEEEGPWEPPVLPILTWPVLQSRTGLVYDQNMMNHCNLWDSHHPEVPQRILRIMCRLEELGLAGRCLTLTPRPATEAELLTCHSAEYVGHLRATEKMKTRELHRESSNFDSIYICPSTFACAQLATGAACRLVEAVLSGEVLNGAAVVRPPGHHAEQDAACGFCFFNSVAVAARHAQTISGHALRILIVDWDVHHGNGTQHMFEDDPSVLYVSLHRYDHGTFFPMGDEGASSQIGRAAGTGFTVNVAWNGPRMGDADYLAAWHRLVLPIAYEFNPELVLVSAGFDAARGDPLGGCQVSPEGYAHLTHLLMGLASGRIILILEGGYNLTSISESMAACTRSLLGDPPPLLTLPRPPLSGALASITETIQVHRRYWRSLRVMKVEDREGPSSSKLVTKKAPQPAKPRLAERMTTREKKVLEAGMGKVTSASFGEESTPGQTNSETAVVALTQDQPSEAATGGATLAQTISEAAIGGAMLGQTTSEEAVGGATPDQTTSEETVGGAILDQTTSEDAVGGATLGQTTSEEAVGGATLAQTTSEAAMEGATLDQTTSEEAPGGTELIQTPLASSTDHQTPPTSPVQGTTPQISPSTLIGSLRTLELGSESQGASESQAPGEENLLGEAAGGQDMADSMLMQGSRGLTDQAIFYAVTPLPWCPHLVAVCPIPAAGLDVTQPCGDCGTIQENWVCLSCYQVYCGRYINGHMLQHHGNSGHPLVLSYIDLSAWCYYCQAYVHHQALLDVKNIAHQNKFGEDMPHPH
Described as above.

The target in the next experiment is T3, HDAC10 (Homo sapiens, UniProt Q969S8).
T3 sequence (Q969S8 1-669): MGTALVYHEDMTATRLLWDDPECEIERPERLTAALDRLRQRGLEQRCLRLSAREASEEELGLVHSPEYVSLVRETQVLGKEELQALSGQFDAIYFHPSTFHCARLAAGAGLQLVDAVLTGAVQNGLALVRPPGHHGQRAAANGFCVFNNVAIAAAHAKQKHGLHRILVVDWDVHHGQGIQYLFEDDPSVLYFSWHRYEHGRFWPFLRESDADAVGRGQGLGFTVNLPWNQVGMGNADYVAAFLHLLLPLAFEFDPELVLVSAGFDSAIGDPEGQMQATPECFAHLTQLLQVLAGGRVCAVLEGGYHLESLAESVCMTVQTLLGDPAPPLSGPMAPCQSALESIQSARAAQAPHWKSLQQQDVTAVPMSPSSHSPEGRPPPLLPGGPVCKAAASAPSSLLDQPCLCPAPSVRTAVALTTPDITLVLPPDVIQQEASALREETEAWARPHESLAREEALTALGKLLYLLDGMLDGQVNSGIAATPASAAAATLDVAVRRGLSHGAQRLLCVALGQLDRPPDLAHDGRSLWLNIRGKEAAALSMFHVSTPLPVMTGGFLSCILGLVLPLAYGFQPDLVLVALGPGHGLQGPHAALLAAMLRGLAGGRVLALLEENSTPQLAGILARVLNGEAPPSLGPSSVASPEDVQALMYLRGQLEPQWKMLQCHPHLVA
The experiment is described as above.

Setting [2] is: ABT-301 25 mg/kg PO QD, alone or + RMP1-14 200 μg IP, n=10/group.
[3] abbreviates: ABT-301 100 mg/kg PO QD, alone or + RMP1-14 200 μg IP, n=10/group.

HDAC5, sequence (Q9UQL6 whole entry): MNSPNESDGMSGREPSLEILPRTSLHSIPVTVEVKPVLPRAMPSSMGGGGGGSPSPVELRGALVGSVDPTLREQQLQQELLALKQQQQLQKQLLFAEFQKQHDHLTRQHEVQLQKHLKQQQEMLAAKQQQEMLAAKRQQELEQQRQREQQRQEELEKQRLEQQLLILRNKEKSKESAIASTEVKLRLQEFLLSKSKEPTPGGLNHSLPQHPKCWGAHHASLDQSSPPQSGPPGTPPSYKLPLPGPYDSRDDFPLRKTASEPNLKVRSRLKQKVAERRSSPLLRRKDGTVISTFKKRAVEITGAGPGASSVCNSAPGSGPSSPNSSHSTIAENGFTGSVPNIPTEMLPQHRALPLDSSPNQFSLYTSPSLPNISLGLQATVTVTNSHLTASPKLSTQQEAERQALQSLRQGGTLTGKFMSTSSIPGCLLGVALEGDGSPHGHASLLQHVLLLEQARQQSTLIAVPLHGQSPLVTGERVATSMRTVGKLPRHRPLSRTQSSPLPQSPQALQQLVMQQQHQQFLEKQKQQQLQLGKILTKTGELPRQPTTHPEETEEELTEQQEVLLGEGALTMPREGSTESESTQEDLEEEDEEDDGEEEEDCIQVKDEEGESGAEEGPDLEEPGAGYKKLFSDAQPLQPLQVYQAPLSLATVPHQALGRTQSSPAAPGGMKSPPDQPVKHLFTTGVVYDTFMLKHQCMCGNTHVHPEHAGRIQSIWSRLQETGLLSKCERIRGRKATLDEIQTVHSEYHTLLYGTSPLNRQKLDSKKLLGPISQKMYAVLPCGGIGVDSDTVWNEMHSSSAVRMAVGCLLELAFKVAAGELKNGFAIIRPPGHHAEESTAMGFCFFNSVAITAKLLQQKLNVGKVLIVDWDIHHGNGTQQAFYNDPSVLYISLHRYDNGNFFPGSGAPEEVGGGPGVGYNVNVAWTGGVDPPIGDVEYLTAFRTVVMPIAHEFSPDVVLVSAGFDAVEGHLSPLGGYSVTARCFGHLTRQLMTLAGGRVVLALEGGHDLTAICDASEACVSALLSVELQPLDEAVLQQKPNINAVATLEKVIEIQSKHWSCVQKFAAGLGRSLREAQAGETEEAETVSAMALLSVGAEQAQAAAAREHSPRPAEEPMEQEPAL
HDAC4, sequence (P56524 whole entry): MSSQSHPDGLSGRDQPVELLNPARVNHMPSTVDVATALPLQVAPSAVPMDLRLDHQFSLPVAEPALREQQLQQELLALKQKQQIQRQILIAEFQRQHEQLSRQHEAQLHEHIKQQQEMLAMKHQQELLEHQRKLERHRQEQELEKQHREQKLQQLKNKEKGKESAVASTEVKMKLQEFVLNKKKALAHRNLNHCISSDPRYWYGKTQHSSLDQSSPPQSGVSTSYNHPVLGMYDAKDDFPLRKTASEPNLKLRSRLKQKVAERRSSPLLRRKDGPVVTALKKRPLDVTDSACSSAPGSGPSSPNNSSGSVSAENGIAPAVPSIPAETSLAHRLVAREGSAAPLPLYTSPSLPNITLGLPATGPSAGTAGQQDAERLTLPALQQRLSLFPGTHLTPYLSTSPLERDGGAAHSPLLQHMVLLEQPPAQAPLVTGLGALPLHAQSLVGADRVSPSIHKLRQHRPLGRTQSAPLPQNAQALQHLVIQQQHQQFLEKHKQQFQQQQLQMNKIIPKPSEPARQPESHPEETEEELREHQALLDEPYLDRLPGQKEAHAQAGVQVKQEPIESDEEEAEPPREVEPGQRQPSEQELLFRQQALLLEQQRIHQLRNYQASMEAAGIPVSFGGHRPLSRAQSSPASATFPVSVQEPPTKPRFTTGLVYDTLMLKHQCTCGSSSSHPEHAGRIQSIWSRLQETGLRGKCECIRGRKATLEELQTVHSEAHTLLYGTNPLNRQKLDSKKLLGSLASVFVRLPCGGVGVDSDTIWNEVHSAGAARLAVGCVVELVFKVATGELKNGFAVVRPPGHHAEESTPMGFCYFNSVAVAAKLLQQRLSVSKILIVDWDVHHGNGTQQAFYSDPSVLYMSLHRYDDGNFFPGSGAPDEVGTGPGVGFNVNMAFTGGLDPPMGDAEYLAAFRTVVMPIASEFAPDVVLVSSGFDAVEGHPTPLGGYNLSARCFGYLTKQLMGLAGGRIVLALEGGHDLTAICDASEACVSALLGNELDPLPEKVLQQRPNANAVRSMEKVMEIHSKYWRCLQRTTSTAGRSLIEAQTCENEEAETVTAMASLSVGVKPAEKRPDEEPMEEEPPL

On to `O=C(/C=C/c1ccc2c(c1)CCN2S(=O)(=O)c1ccccc1)NO` [ABT-301, (E)-N-hydroxy-3-(1-(phenylsulfonyl)-indolin-5-yl)-acrylamide], for which the “number of mice exhibiting partial response (PR)” value in experiment [1] (setting [2]) was 1; in experiment [1] (setting [3]), 2. Moreover, the “number of mice exhibiting progressive disease (PD)” value came to 8 in experiment [1] (setting [2]) and 7 in experiment [1] (setting [3]). The “number of mice exhibiting complete response (CR)” value in experiment [1] (setting [3]) is 2. In addition, the figures for the Tumor size in experiment [1] (ABT-301 25 mg/kg), in experiment [1] (ABT-301 50 mg/kg) and in experiment [1] (ABT-301 100 mg/kg) were 806.83 ± 212.06* mm^3, 580.33 ± 206.53** mm^3 and 234.59 ± 52.38** mm^3, respectively. For the same compound, the IC50 is 30.2 nM at HDAC1; 6.61 nM against HDAC3; 956 nM against HDAC8; greater than 3000 nM on HDAC4; greater than 3000 nM on HDAC5; 53.2 nM against HDAC6. For the same compound, the IC50 at HDAC10 is 59.7 nM.
